This assay concerns isolated rodent brain-derived mitochondria. The note with it: under energized and de-energized conditions; comparable to the effects of cyclosporine A. The text has this:
Spinal cord injury model (in vivo) • Adult Lewis rats are injured microsurgically by transecting the dorsal half of the spinal cord bilaterally at the level of the eighth thoracic vertebra. Laminectomy, anesthesia and surgery are described in Schnell and Schwab, Eur J Neurosci, Vol. 5, pp. 1156-1171 (1993). […] Tamura et al., J Cereb Blood Flow Metabol, Vol. 1, pp. 53-60 (1981); and Sauter and Rudin, Stroke, Vol. 17, pp. 1228-1234 (1986)]. • 3. Inhibition of mitochondrial permeability transition in isolated rodent brain-derived mitochondria and prevention of cell death in an in vitro model of ischemic brain damage, e.g. as described in Rytter et al., JCBF, Vol. 23, pp. 23-33.

The text below walks through data of US20080194470A1, “Nim811 In Cerebral Ischemia and Brain and Spinal Cord Injury” (Novartis AG, priority 2004, published 2008).

Turning to [Melle]^4-Ciclosporin, the “inhibition of calcium-induced mitochondrial swelling” value is “inhibitors of calcium-induced mitochondrial swelling”. As to [γ-hydroxy-MeLeu]^4-Ciclosporin, the “inhibition of calcium-induced mitochondrial swelling” value is “inhibitors of calcium-induced mitochondrial swelling”.
